From US20120101100A1 (priority 2008, published 2012) come the findings set out here.

SMILES strings stand for the structures.

S. aureus GyrB ATPase, sequence (P0A0K8 whole entry): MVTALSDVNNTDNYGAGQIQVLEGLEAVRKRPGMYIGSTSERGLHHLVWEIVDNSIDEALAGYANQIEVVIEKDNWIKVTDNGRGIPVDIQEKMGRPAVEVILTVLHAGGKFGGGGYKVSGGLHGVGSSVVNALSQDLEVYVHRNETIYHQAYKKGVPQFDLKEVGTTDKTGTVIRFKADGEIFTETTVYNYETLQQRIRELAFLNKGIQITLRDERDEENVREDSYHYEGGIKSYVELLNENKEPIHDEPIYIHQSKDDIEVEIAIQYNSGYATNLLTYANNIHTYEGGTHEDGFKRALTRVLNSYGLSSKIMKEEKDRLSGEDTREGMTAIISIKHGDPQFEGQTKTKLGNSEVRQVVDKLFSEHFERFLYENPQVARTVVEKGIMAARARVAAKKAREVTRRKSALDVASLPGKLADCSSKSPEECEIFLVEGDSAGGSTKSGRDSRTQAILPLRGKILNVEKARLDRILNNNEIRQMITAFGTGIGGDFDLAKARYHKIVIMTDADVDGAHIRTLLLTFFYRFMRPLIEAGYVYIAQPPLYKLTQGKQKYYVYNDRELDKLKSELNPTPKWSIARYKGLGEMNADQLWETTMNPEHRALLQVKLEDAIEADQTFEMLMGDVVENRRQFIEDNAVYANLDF
S. aureus GyrB ATPase, sequence (P0AES4 whole entry, further chain): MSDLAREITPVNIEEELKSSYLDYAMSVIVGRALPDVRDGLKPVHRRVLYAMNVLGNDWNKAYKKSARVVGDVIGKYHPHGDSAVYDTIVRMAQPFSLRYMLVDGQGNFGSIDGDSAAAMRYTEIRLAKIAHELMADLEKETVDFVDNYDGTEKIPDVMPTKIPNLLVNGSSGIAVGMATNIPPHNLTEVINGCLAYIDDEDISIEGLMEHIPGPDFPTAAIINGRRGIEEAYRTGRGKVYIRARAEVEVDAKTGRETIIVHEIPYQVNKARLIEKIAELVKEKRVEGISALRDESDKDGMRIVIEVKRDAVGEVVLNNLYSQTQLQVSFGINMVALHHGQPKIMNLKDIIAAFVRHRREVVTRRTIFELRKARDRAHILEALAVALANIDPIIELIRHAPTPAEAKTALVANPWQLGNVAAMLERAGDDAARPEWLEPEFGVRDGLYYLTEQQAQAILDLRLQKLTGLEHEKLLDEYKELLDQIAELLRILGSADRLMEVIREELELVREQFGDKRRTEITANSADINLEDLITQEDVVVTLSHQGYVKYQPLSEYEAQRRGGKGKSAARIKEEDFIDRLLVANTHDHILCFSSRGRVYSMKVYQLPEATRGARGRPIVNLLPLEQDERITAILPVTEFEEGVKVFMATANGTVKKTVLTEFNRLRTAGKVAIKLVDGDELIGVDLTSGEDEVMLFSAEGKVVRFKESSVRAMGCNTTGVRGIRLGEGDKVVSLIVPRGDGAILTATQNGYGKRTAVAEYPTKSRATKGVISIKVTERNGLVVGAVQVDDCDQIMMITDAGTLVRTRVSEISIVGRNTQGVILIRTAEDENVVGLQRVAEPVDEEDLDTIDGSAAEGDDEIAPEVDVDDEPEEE

For the experiment, the target named is S. aureus GyrB ATPase (Staphylococcus aureus, UniProt P0A0K8). The experiment is described as follows: S. aureus (SAU) GyrB ATPase inhibition, malachite green phosphate detection (E. coli GyrA + S. aureus GyrB). The format is biochemical. The note with it: compound concentration of 1.0 μM unless otherwise noted; average value where assay was carried out more than once; read-out: S. aureus (SAU) GyrB ATPase % Inhibition. An outline of the steps:
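Phosphate from ATP hydrolysis (500 μM ATP) read as malachite green/molybdate absorbance at 650 nm after acid quench. Reaction: 1.25 nM S. aureus GyrB plus 1.25 nM E. coli GyrA, sheared DNA, Hepes pH 7.5 with Mg2+. IC50 fitted over 10 concentrations, normalised to DMSO (2%) and novobiocin (2 μM) controls.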
As usually defined, the inhibition is the change of the read-out against control, counted positive when it falls. With `CCNC(=O)Nc1cc(-c2nc(-c3cccc(OC)n3)cs2)c(-c2nc(-c3ncnn3C)c(-c3nnc(C)o3)s2)cn1` [Example 252, 1-ethyl-3-(4-(4-(6-methoxypyridin-2-yl)thiazol-2-yl)-5-(5-(5-methyl-1,3,4-oxadiazol-2-yl)-4-(1-methyl-1H-1,2,4-triazol-5-yl)thiazol-2-yl)pyridin-2-yl)urea], the inhibition at 1 µM stood at 99%. Take `CCNC(=O)Nc1cc(-c2nc(C(F)(F)F)cs2)c(-c2cnc(OCCOC)c(-c3n[nH]c(=O)o3)c2)cn1` [Example 254]: the inhibition at 1 µM turned out to be 97%. Turning to `CCNC(=O)Nc1cc(-c2nc(C(F)(F)F)cs2)c(-c2cc(-c3nnc(C)o3)c[n+]([O-])c2)cn1` [Example 255, 6′-(3-ethylureido)-5-(5-methyl-1,3,4-oxadiazol-2-yl)-4′-(4-(trifluoromethyl)thiazol-2-yl)-3,3′-bipyridine 1-oxide], the inhibition at 1 µM worked out at 98%. On to `CCNC(=O)Nc1cc(-c2nc(C(F)(F)F)cs2)c(-c2cncc(-c3nnc(C(F)F)[nH]3)c2)cn1` [Example 256, 1-(5′-(5-(difluoromethyl)-4H-1,2,4-triazol-3-yl)-4-(4-(trifluoromethyl)thiazol-2-yl)-3,3′-bipyridin-6-yl)-3-ethylurea], for which the inhibition at 1 µM is 103%. To `CCNC(=O)Nc1cc(-c2nc(C(F)(F)F)cs2)c(-c2cncc(-c3nnc(C(F)(F)F)[nH]3)c2)cn1` [Example 257, 1-ethyl-3-(5′-(5-(trifluoromethyl)-4H-1,2,4-triazol-3-yl)-4-(4-(trifluoromethyl)thiazol-2-yl)-3,3′-bipyridin-6-yl)urea] belongs 102%; to `CCNC(=O)Nc1cc(-c2nc(C(F)(F)F)cs2)c(-c2cnc(N)c(-c3nnc(C)o3)c2)cn1` [Example 258, 1-(6′-amino-5′-(5-methyl-1,3,4-oxadiazol-2-yl)-4-(4-(trifluoromethyl)thiazol-2-yl)-3,3′-bipyridin-6-yl)-3-ethylurea], 96%; to `CCNC(=O)Nc1cc(-c2nc(C(F)(F)F)cs2)c(-c2cc[n+]([O-])c(-c3nnc(C)o3)c2)cn1` [Example 259, 6-(3-ethylureido)-2′-(5-methyl-1,3,4-oxadiazol-2-yl)-4-(4-(trifluoromethyl)thiazol-2-yl)-3,4′-bipyridine 1′-oxide], 95%. Regarding `CCNC(=O)Nc1cc(-c2nc(C(F)(F)F)cs2)c(-c2cc(-c3n[nH]c(=O)o3)cnc2N)cn1` [Example 260, 1-(2′-amino-5′-(5-oxo-4,5-dihydro-1,3,4-oxadiazol-2-yl)-4-(4-(trifluoromethyl)thiazol-2-yl)-3,3′-bipyridin-6-yl)-3-ethylurea], the inhibition at 1 µM worked out at 96%. `CCNC(=O)Nc1cc(-c2nc(C(F)(F)F)cs2)c(-c2c[nH]c(=O)c(-c3nnc(C)o3)c2)cn1` [Example 261, 1-ethyl-3-(5-(5-(5-methyl-1,3,4-oxadiazol-2-yl)-6-oxo-1,6-dihydropyridin-3-yl)-4-(4-(trifluoromethyl)thiazol-2-yl)pyridin-2-yl)urea]: the inhibition at 1 µM worked out at 96%. As for `CCNC(=O)Nc1cc(-c2nc(-c3cccc(OC)n3)cs2)c(-c2cncc(-c3n[nH]c(=O)o3)n2)cn1` [Example 262, 1-ethyl-3-(4-(4-(6-methoxypyridin-2-yl)thiazol-2-yl)-5-(6-(5-oxo-4,5-dihydro-1,3,4-oxadiazol-2-yl)pyrazin-2-yl)pyridin-2-yl)urea], the inhibition at 1 µM amounted to 97%. As to `CCNC(=O)Nc1cc(-c2nc(C(F)(F)F)cs2)c(-c2cncc(-c3nnc(C(C)(C)O)o3)c2)cn1` [Example 263, 1-ethyl-3-(5′-(5-(2-hydroxypropan-2-yl)-1,3,4-oxadiazol-2-yl)-4-(4-(trifluoromethyl)thiazol-2-yl)-3,3′-bipyridin-6-yl)urea], the inhibition at 1 µM was found to be 100%. To `CCNC(=O)Nc1cc(-c2nc(C(F)(F)F)cs2)c(-c2cncc(-c3nnc(C(C)(C)OC(C)=O)o3)c2)cn1` [Example 264, 2-(5-(6′-(3-ethylureido)-4′-(4-(trifluoromethyl)thiazol-2-yl)-3,3′-bipyridin-5-yl)-1,3,4-oxadiazol-2-yl)propan-2-yl acetate] belongs 98%; to `CCNC(=O)Nc1cc(-c2nc(C(F)(F)F)cs2)c(-c2cncc(-c3nnc(CC(C)=O)o3)c2)cn1` [Example 265, 1-ethyl-3-(5′-(5-(2-oxopropyl)-1,3,4-oxadiazol-2-yl)-4-(4-(trifluoromethyl)thiazol-2-yl)-3,3′-bipyridin-6-yl)urea], 101%.

As to `CCNC(=O)Nc1cc(-c2nc(C(F)(F)F)cs2)c(-c2cncc(-c3nnc(COCc4ccccc4)o3)c2)cn1` [Example 266, 1-(5′-(5-(benzyloxymethyl)-1,3,4-oxadiazol-2-yl)-4-(4-(trifluoromethyl)thiazol-2-yl)-3,3′-bipyridin-6-yl)-3-ethylurea], the inhibition at 1 µM worked out at 98%.

Turning to `CCNC(=O)Nc1cc(-c2nc(C(F)(F)F)cs2)c(-c2cncc(-c3nnc(N(CC)CC)o3)c2)cn1` [Example 267, 1-(5′-(5-(diethylamino)-1,3,4-oxadiazol-2-yl)-4-(4-(trifluoromethyl)thiazol-2-yl)-3,3′-bipyridin-6-yl)-3-ethylurea], the inhibition at 1 µM came out at 98%. Consider `CCNC(=O)Nc1cc(-c2nc(C(F)(F)F)cs2)c(-c2cncc(-c3nnc(CN(C)C)o3)c2)cn1` [Example 268, 1-(5′-(5-((dimethylamino)methyl)-1,3,4-oxadiazol-2-yl)-4-(4-(trifluoromethyl)thiazol-2-yl)-3,3′-bipyridin-6-yl)-3-ethylurea], for which the inhibition at 1 µM is 98%. Consider `CCNC(=O)Nc1cc(-c2nc(C(F)(F)F)cs2)c(-c2cncc(-c3nnc(COC)o3)c2)cn1` [Example 270, 1-ethyl-3-(5′-(5-(methoxymethyl)-1,3,4-oxadiazol-2-yl)-4-(4-(trifluoromethyl)thiazol-2-yl)-3,3′-bipyridin-6-yl)urea], for which the inhibition at 1 µM came out at 97%. To `CCNC(=O)Nc1cc(-c2nc(C(F)(F)F)cs2)c(-c2cncc(-c3nnc(OCC)o3)c2)cn1` [Example 271, 1-(5′-(5-ethoxy-1,3,4-oxadiazol-2-yl)-4-(4-(trifluoromethyl)thiazol-2-yl)-3,3′-bipyridin-6-yl)-3-ethylurea] belongs 100%.

For `CCNC(=O)Nc1cc(-c2nc(C(F)(F)F)cs2)c(-c2cncc(-c3nnco3)c2)cn1` [Example 272, 1-(5′-(1,3,4-oxadiazol-2-yl)-4-(4-(trifluoromethyl)thiazol-2-yl)-3,3′-bipyridin-6-yl)-3-ethylurea], the inhibition at 1 µM was found to be 90%. Turning to `CCNC(=O)Nc1cc(-c2nc(C(F)(F)F)cs2)c(-c2cncc(-c3nnc(C4(O)CC4)o3)c2)cn1` [Example 273, 1-ethyl-3-(5′-(5-(1-hydroxycyclopropyl)-1,3,4-oxadiazol-2-yl)-4-(4-(trifluoromethyl)thiazol-2-yl)-3,3′-bipyridin-6-yl)urea], the inhibition at 1 µM stood at 98%.

For `CCNC(=O)Nc1cc(-c2nc(C(F)(F)F)cs2)c(-c2cncc(-c3nnc(C(=O)N(C)C)o3)c2)cn1` [Example 274, 5-(6′-(3-ethylureido)-4′-(4-(trifluoromethyl)thiazol-2-yl)-3,3′-bipyridin-5-yl)-N,N-dimethyl-1,3,4-oxadiazole-2-carboxamide], the inhibition at 1 µM is 99%.
